Reference: ChEMBL document CHEMBL4308841, “Synthesis, in vitro antiproliferative activity, and kinase inhibitory effects of pyrazole-containing diarylureas and diarylamides” (Eur J Med Chem, 2018)

Legend:
MDA-MB-435 = assay: Growth inhibition of human MDA-MB-435 cells incubated for 48 hrs by sulforhodamine B assay; assay type: functional, cell-based; settings: MDA-MB-435, 48 h
LOX IMVI [1] = assay: Growth inhibition of human LOXIMVI cells assessed as cell growth at 1 uM incubated for 48 hrs by sulforhodamine B assay relative to control; assay type: functional; settings: read-out: Activity
T47D = assay: Growth inhibition of human T47D cells assessed as cell growth at 0.1 uM incubated for 48 hrs by sulforhodamine B assay relative to control; assay type: functional; settings: read-out: Activity
UO-31 = assay: Growth inhibition of human UO31 cells assessed as cell growth at 0.01 uM incubated for 48 hrs by sulforhodamine B assay relative to control; assay type: functional; settings: UO-31, 48 h, read-out: Activity
SF-539 [2] = assay: Growth inhibition of human SF539 cells incubated for 48 hrs by sulforhodamine B assay; assay type: functional, cell-based; settings: SF-539, 48 h
SF-539 [3] = assay: Growth inhibition of human SF539 cells assessed as cell growth at 0.1 uM incubated for 48 hrs by sulforhodamine B assay relative to control; assay type: functional; settings: SF-539, 48 h, read-out: Activity
A498 = assay: Growth inhibition of human A498 cells assessed as cell growth at 0.01 uM incubated for 48 hrs by sulforhodamine B assay relative to control; assay type: functional; settings: A498, 48 h, read-out: Activity
RPMI-8226 [4] = assay: Growth inhibition of human RPMI8226 cells incubated for 48 hrs by sulforhodamine B assay; assay type: functional, cell-based; settings: RPMI-8226, 48 h
SNB-19 = assay: Growth inhibition of human SNB19 cells assessed as cell growth at 100 uM incubated for 48 hrs by sulforhodamine B assay relative to control; assay type: functional; settings: SNB-19, 48 h, read-out: Activity
SW-620 = assay: Growth inhibition of human SW620 cells assessed as cell growth at 1 uM incubated for 48 hrs by sulforhodamine B assay relative to control; assay type: functional; settings: SW-620, 48 h, read-out: Activity
A549 = assay: Growth inhibition of human A549/ATCC cells incubated for 48 hrs by sulforhodamine B assay; assay type: functional, cell-based; settings: A549, 48 h
MDA-MB-231 = assay: Growth inhibition of human MDA-MB-231 cells incubated for 48 hrs by sulforhodamine B assay; assay type: functional, cell-based; settings: MDA-MB-231, 48 h
UACC-62 = assay: Growth inhibition of human UACC62 cells assessed as cell growth at 0.1 uM incubated for 48 hrs by sulforhodamine B assay relative to control; assay type: functional; settings: UACC-62, 48 h, read-out: Activity
RPMI-8226 [5] = assay: Growth inhibition of human RPMI8226 cells assessed as cell growth at 0.01 uM incubated for 48 hrs by sulforhodamine B assay relative to control; assay type: functional; settings: RPMI-8226, 48 h, read-out: Activity
MDA-MB-468 = assay: Growth inhibition of human MDA-MB-468 cells incubated for 48 hrs by sulforhodamine B assay; assay type: functional, cell-based; settings: MDA-MB-468, 48 h
ACHN = assay: Growth inhibition of human ACHN cells assessed as cell growth at 100 uM incubated for 48 hrs by sulforhodamine B assay relative to control; assay type: functional; settings: read-out: Activity
HCT-116 = assay: Growth inhibition of human HCT116 cells assessed as cell growth at 100 uM incubated for 48 hrs by sulforhodamine B assay relative to control; assay type: functional; settings: HCT-116, 48 h, read-out: Activity
SF-295 = assay: Growth inhibition of human SF295 cells incubated for 48 hrs by sulforhodamine B assay; assay type: functional, cell-based; settings: SF-295, 48 h
K562 [6] = assay: Growth inhibition of human K562 cells assessed as cell growth at 1 uM incubated for 48 hrs by sulforhodamine B assay relative to control; assay type: functional; settings: K562, 48 h, read-out: Activity
SF-268 [7] = assay: Growth inhibition of human SF268 cells assessed as cell growth at 1 uM incubated for 48 hrs by sulforhodamine B assay relative to control; assay type: functional; settings: SF-268, 48 h, read-out: Activity
RPMI-8226 [8] = assay: Growth inhibition of human RPMI8226 cells assessed as cell growth at 0.1 uM incubated for 48 hrs by sulforhodamine B assay relative to control; assay type: functional; settings: RPMI-8226, 48 h, read-out: Activity
SF-268 [9] = assay: Growth inhibition of human SF268 cells assessed as cell growth at 100 uM incubated for 48 hrs by sulforhodamine B assay relative to control; assay type: functional; settings: SF-268, 48 h, read-out: Activity
OVCAR-5 = assay: Growth inhibition of human OVCAR5 cells assessed as cell growth at 0.01 uM incubated for 48 hrs by sulforhodamine B assay relative to control; assay type: functional; settings: OVCAR-5, 48 h, read-out: Activity
Hs-578T = assay: Growth inhibition of human Hs578T cells assessed as cell growth at 100 uM incubated for 48 hrs by sulforhodamine B assay relative to control; assay type: functional; settings: read-out: Activity
K562 [10] = assay: Growth inhibition of human K562 cells assessed as cell growth at 0.01 uM incubated for 48 hrs by sulforhodamine B assay relative to control; assay type: functional; settings: K562, 48 h, read-out: Activity
LOX IMVI [11] = assay: Growth inhibition of human LOXIMVI cells assessed as cell growth at 0.1 uM incubated for 48 hrs by sulforhodamine B assay relative to control; assay type: functional; settings: read-out: Activity
SK-MEL-28 = assay: Growth inhibition of human SK-MEL-28 cells incubated for 48 hrs by sulforhodamine B assay; assay type: functional, cell-based; settings: SK-MEL-28, 48 h
BT-549 = assay: Growth inhibition of human BT549 cells assessed as cell growth at 0.1 uM incubated for 48 hrs by sulforhodamine B assay relative to control; assay type: functional; settings: BT-549, 48 h, read-out: Activity
[12] = read-out: LC50 (the source's name)
[13] = read-out: pLC50 (the source's name) (converted)

`COc1cc(Cl)cc(-c2nn(-c3cccc(NC(=O)Nc4cccc(C(F)(F)F)c4)c3)cc2-c2ccncc2)c1` was tested, and the GI50 (MDA-MB-435; read-out: GI50) was 1.74 µM, the LC50 (MDA-MB-435; read-out: LC50) was 83.7 µM and the TGI (MDA-MB-435; read-out: TGI) was 35.2 µM. It also gave a GI50 (MDA-MB-435; read-out: pGI50 (converted)) of 1.74 µM, an LC50 (MDA-MB-435; read-out: pLC50 (converted)) of 8.32 µM and a TGI (MDA-MB-435; read-out: pTGI (converted)) of 3.8 µM. For the same compound, the growth at 1 µM (LOX IMVI [1]) was 72%, the growth at 0.1 µM (T47D) was 94% and the growth at 0.01 µM (UO-31) was 91%. For the same compound, the GI50 (SF-539 [2]; read-out: GI50) was 1 µM, the CC50 (SF-539 [2]; [12]) was 21.1 µM and the TGI (SF-539 [2]; read-out: TGI) was 45.2 µM. It also gave a GI50 (SF-539 [2]; read-out: pGI50 (converted)) of 1.91 µM, a CC50 (SF-539 [2]; [13]) of 21.4 µM and a TGI (SF-539 [2]; read-out: pTGI (converted)) of 4.79 µM. The growth at 0.1 µM (SF-539 [3]) was 93%, the growth at 0.01 µM (A498) was 95% and the IC50 (RPMI-8226 [4]) was 0.43 µM. The GI50 (RPMI-8226 [4]; read-out: GI50) was 0.43 µM, the CC50 (RPMI-8226 [4]; [12]) was over 100 µM and the TGI (RPMI-8226 [4]; read-out: TGI) was 23 µM. It also gave a GI50 (RPMI-8226 [4]; read-out: pGI50 (converted)) of 0.427 µM, a CC50 (RPMI-8226 [4]; [13]) of over 100 µM and a TGI (RPMI-8226 [4]; read-out: pTGI (converted)) of 2.29 µM. The growth at 100 µM (SNB-19) was -13%, the growth at 1 µM (SW-620) was 74% and the IC50 (A549) was 0.73 µM. The GI50 (A549; read-out: GI50) was 0.726 µM, the CC50 (A549; [12]) was over 100 µM and the TGI (A549; read-out: TGI) was 74.2 µM. For the same compound, the GI50 (A549; read-out: pGI50 (converted)) was 0.724 µM, the CC50 (A549; [13]) was over 100 µM and the TGI (A549; read-out: pTGI (converted)) was 7.41 µM. The GI50 (MDA-MB-231; read-out: GI50) was 1.59 µM, the CC50 (MDA-MB-231; [12]) was over 100 µM and the TGI (MDA-MB-231; read-out: TGI) was 49.1 µM. It also gave a GI50 (MDA-MB-231; read-out: pGI50 (converted)) of 1.58 µM, a CC50 (MDA-MB-231; [13]) of over 100 µM and a TGI (MDA-MB-231; read-out: pTGI (converted)) of 4.9 µM. For the same compound, the growth at 0.1 µM (UACC-62) was 96%, the growth at 0.01 µM (RPMI-8226 [5]) was 99% and the IC50 (MDA-MB-468) was 1.05 µM. It also gave a GI50 (MDA-MB-468; read-out: GI50) of 1.05 µM, a CC50 (MDA-MB-468; [12]) of over 100 µM and a TGI (MDA-MB-468; read-out: TGI) of 49.9 µM. The GI50 (MDA-MB-468; read-out: pGI50 (converted)) was 1.05 µM, the CC50 (MDA-MB-468; [13]) was over 100 µM and the TGI (MDA-MB-468; read-out: pTGI (converted)) was 5.01 µM. It also gave a growth at 100 µM (ACHN) of -9%, a growth at 100 µM (HCT-116) of -81% and a GI50 (SF-295; read-out: GI50) of 0.753 µM. For the same compound, the CC50 (SF-295; [12]) was 75.9 µM, the TGI (SF-295; read-out: TGI) was 45.2 µM and the GI50 (SF-295; read-out: pGI50 (converted)) was 0.776 µM. The CC50 (SF-295; [13]) was 77.6 µM, the TGI (SF-295; read-out: pTGI (converted)) was 4.57 µM and the growth at 1 µM (K562 [6]) was 45%. For the same compound, the growth at 1 µM (SF-268 [7]) was 79%, the growth at 0.1 µM (RPMI-8226 [8]) was 98% and the growth at 100 µM (SF-268 [9]) was -28%. It also gave a growth at 0.01 µM (OVCAR-5) of 94%, a growth at 100 µM (Hs-578T) of 21% and a growth at 0.01 µM (K562 [10]) of 104%. The growth at 0.1 µM (LOX IMVI [11]) was 97%, the GI50 (SK-MEL-28; read-out: GI50) was 2.53 µM and the CC50 (SK-MEL-28; [12]) was over 100 µM. It also gave a TGI (SK-MEL-28; read-out: TGI) of 12.1 µM, a GI50 (SK-MEL-28; read-out: pGI50 (converted)) of 2.51 µM and a CC50 (SK-MEL-28; [13]) of over 100 µM. The TGI (SK-MEL-28; read-out: pTGI (converted)) was 12 µM and the growth at 0.1 µM (BT-549) was 114%.
